Experiment [1] has as its system IL-36γ evoked CXCL1 release from Mouse NIH-3T3 cells. Description: IL-36γ evoked CXCL1 release, mouse NIH-3T3 cells. It is filed as cell-based. Particulars: human IL-36γ evoked CXCL1 release, ± S.D. As for the experimental part: The immortalized human keratinocyte cell line HaCaT and mouse fibroblast NIH-3T3 cell line were maintained in culture in DMEM with 10% fetal bovine serum and 1% penicillin/streptomycin added (Sigma). Cells were seeded in 96-well tissue culture plates (Corning) at 25,000 cells per well and allowed to adhere and recover overnight at 37 °C in an incubator. Cells were rinsed with PBS (Sigma) and treated with cytokines diluted in 200 μL/well of the medium (DMEM with 0.5% FBS and 1% penicillin/streptomycin) as indicated. In inhibition mode, the agonist concentration used was at the EC80 for chemokine production and the cells were pre-treated with inhibitors for 30 min prior to adding the agonist. After 24 h of treatment, supernatants were collected and IL-8 and CXCL1[28] levels were assessed using a custom immunoassay (Meso Scale Discovery). EC50/IC50 values were estimated from a four-parameter logistic fit using Prism software (GraphPad).

For a further experiment, the target named is T1, human IL-36α (Homo sapiens, UniProt Q9UHA7).
T1 construct: using recombinant truncated proteins
T1 sequence (Q9UHA7 6-158): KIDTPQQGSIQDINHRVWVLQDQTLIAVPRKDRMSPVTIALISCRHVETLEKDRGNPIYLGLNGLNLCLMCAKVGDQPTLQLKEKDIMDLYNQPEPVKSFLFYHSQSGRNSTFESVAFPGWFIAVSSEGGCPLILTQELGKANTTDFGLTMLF
Nature of the experiment: Thermal shift assay / affinity, human IL-36α. It is filed as binding. The conditions noted are these: thermal shift assay at 100 μM (Supplementary Fig. 4). The method, then:
Thermal shift assays[30] were performed on a Roche LightCycler 480 instrument using Sypro Orange Dye (Invitrogen). Reactions consisted of 0.5–2 µM purified recombinant protein in PBS, pH 7.4, a 1/500 dilution of the stock Sypro Orange reagent, and 100 µM test compounds, resulting in a final DMSO concentration of 1%. The samples were heated from 20 °C to 95 °C at a rate of 0.25 °C per second.

A further experiment concerns the target T2, human IL-36γ (Homo sapiens, UniProt Q9NZH8).
T2 construct: His6-SUMO-human IL-36γ (18–169); His6-SUMO (N, cleaved yes); made in house; host or cells: E. coli BL21 (DE3)
T2 sequence (Q9NZH8 18-169): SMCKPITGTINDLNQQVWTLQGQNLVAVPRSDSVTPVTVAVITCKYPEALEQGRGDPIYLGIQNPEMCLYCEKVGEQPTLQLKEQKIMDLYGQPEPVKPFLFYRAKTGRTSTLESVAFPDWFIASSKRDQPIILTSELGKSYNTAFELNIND
Description: Isothermal titration calorimetry. It is filed as binding. Particulars: 25 °C, pH 7.5; read-out: KD (ITC). The method, then:
All experiments were carried out on a MicroCal^TM Auto-ITC200 at 25 °C in 50 mM HEPES (pH = 7.5), 150 mM NaCl, 0.5 mM TCEP, 2% DMSO. IL-36γ protein solution was buffer exchanged by gel filtration into the isothermal titration calorimetry (ITC) buffer and diluted to 40 µM. The titrations were conducted using an initial injection of 0.2 µL followed by 19 identical injections of 2 µL of 400 µM compound solution. Thermodynamic parameters were calculated using ∆G = ∆H − T∆S = −RTlnKB, where ∆G, ∆H and ∆S are the changes in free energy, enthalpy and entropy of binding respectively. A single binding site model was employed.
For orientation: ITC needs no label: the signal is the heat of the interaction.

Another experiment concerns the target T3, mouse IL-36γ (Mus musculus, UniProt Q8R460).
T3 sequence (Q8R460 13-164): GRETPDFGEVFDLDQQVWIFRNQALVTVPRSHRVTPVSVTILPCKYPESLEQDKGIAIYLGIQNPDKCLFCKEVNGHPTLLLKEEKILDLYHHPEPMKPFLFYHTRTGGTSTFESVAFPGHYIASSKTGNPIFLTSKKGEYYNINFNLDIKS
Nature of the experiment: Affinity for mouse IL-36γ. It is filed as binding.

The values that follow come from PMC6591177, “Small Molecule IL-36γ Antagonist as a Novel Therapeutic Approach for Plaque Psoriasis” (Scientific Reports, 2019).

“Also recorded” adds a separate entry of the source.

In general, Ki refers to the dissociation constant of the complex between target and ligand, obtained from inhibition or displacement. Read a high Ki as lower affinity. As usually defined, the Kd is a measure of binding affinity in units of concentration.

`COC(c1ccccc1)(c1ccccc1)[C@H](Oc1nc(C)cc(-c2ccc(C)c(N)c2)n1)C(=O)O` [Compound A-552] displayed a Ki in experiment [1] of 54 ± 10 nM. The “binding / affinity to human IL-36α” value at human IL-36α is listed as “do not bind; also recorded: does not show affinity”. Moreover, the dissociation constant Kd on human IL-36γ was determined as 67.6 ± 6 nM. Also, the “affinity for mouse IL-36γ” value at mouse IL-36γ is given as “does not show affinity”.
